From patent US9018175B2 (Takeda GmbH, priority 2009, dated 2015) come the findings set out here.

In one experiment the target is T1, human PDE5 (Homo sapiens, UniProt O76074).
T1 construct: from tissue; host or cells: human platelets from fresh donor blood (10,000 g supernatant of sonicated platelets)
The experiment is described as follows: Inhibition of PDE5 activity (SPA, [3H]cGMP, platelet lysate). As to conditions: PDE5 from human platelet lysate; values given as bins; read-out: PDE5A inhibitory values measured as −logIC50 (converted). Type of experiment: biochemical. As for the experimental part:
As a source for human PDE5, platelets are used. For that purpose, 150 ml fresh blood from human donors anticoagulated with citrate [final concentration 0.3% (w/v)] is centrifuged at 200 g for 10 min to obtain the so-called platelet-rich-plasma (PRP) as a supernatant. 1/10 volume of ACD solution (85 mM Na3-citrate, 111 mM D-glucose, 71 mM citric acid, pH 4.4) is added to 9/10 volume of PRP. After centrifugation (1,400 g, 10 min) the cell pellet is resuspended in 3 ml homogenization buffer (NaCl 140 mM, KCl 3.8 mM, EGTA (ethylene glycol tetraacetic acid) 1 mM, MgCl2 1 mM, Tris-HCl 20 mM, beta-mercaptoethanol 1 mM, pH 8.2) plus protease-inhibitor mix giving rise to the final concentrations of 0.5 mM Pefablock (Roche), 10 μM Leupeptin, 5 μM Trypsininhibitor, 2 mM Benzamidin and 10 μM Pepstatin A. The suspension is sonified and thereafter centrifuged for 15 min at 10,000 g. The resulting supernatant (platelet lysate) is used for enzymatic testings.
PDE5 activities were measured in a 96-well platform using SPA (scintillation proximity assay) yttrium silicate beads (RPNQ1050 from GE Healthcare). In a first step the PDE activity operates hydrolysis of either [^3H] cGMP (substrate) into [^3H] 5′GMP. In a second step substrate and product are distinguished following addition of SPA yttrium silicate beads. Indeed, in the presence of zinc sulphate the linear [^3H] […] Close proximity of bound [^3H] […] The test volume is 100 pl and contains 20 mM Tris buffer (pH 7.4), 0.1 mg of BSA (bovine serum albumin)/ml, 5 mM Mg^2+, 1 μM motapizone (PDE3 Inhibitor), 10 nM PDE2 inhibitor 2-(3,4-dimethoxybenzyl)-7-[(1R,2R)-2-hydroxy-1-(2-phenylethyl)propyl]-5-methylimidazo[5,1-f][1,2,4]triazin-4(3H)-one, […] (cyclic guanosine monophosphate) (including about 50,000 cpm of [3H]cGMP as a tracer), 1 pl of the respective compound dilution in dimethylsulfoxide (DMSO) and sufficient PDE5-containing platelet lysat (10,000, g supernatant, see above) to ensure that 10-20 wt % of the cGMP is converted under the said experimental conditions. […] After a preincubation of 5 min at 37° C., the reaction is started by adding the substrate (cGMP) and the assay is incubated for a further 15 min; after that, it is stopped by adding SPA beads (50 pl). In accordance with the manufacturer's instructions, the SPA beads had previously been resuspended in water, but are then diluted 1:3 (v/v) in water; the diluted solution also contains 3 mM […]3-isobutyl-1-methylxanthine (IBMX) to ensure a complete PDE activity stop. After the beads have been sedimented (>30 min), the MTP's are analyzed in commercially available luminescence detection devices. The corresponding IC50 values of the compounds for the inhibition of PDE activity are determined from the concentration-effect curves by means of non-linear regression.

The target in a further experiment is T2, PDE4B1 (Homo sapiens, UniProt Q07343).
T2 construct: made in house; host or cells: SF21 insect cells (baculovirus; pCR-Bac vector)
Nature of the experiment: Inhibition of PDE4B1 activity (SPA, [3H]cAMP). As to conditions: recombinant PDE4B1 expressed in SF21 cells; 0.5 pM [sic] cAMP; values given as bins; read-out: PDE4B1 inhibitory values measured as −logIC50 (converted). Type of experiment: biochemical. As for the experimental part: The PDE4B1 (GB no. L20966) was a gift of Prof. M. Conti (Stanford University, USA). It was amplified from the original plasmid (pCMV5) via PCR with primers Rb18 (5′-[…]-3′) and Rb10 (5′-[…]-3′) and cloned into the pCR-Bac vector (Invitrogen, Groningen, NL).
The recombinant baculovirus was prepared by means of homologous recombination in SF9 insect cells. The expression plasmids were cotransfected with Baculo-Gold DNA (Pharmingen, Hamburg) using a standard protocol (Pharmingen, Hamburg). Wt virus-free recombinant virus supernatants were selected using plaque assay methods. After that, high-titre virus supernatants were prepared by amplifying 3 times. PDE4B1 was expressed in SF21 cells by infecting 2×10^6 cells/ml with an MOI (multiplicity of infection) between 1 and 10 in the serum-free medium Insect Express Sf9-S2 (PAA, Pasching, Austria). The cells were cultured at 28° C. for 48-72 hours, after which they were pelleted for 5-10 min at 1000×g and 4° C.
The SF21 insect cells were resuspended, at a concentration of approx. 10^7 cells/ml, in ice-cold (4° C.) homogenization buffer (20 mM Tris, pH 8.2, containing the following additions: 140 mM NaCl, 3.8 mM KCl, 1 mM EGTA, 1 mM MgCl2, 10 mM e-mercaptoethanol, 2 mM benzamidine, 0.4 mM Pefablock, 10 pM leupeptin, 10 pM pepstatin A, 5 pM trypsin inhibitor) and disrupted by ultrasonication. The homogenate was then centrifuged for 10 min at 1000, g and the supernatant was stored at −80° C. until subsequent use (see below). The protein content was determined by the Bradford method (BioRad, Munich) using BSA as the standard.
PDEB1 activities were measured in a 96-well platform using SPA (scintillation proximity assay) yttrium silicate beads (RPNQ1050 from GE Healthcare). In a first step the PDE activity operates hydrolysis of either [^3H] cAMP (substrate) into [^3H] 5′AMP. In a second step substrate and product are distinguished following addition of SPA yttrium silicate beads. Indeed, in the presence of zinc sulphate the linear [^3H] […] Close proximity of bound [^3H] […] The test volume is 100 pl and contains 20 mM Tris buffer (pH 7.4), 0.1 mg/ml of BSA, 5 mM Mg^2+, […] (including about 50,000 cpm of [3H]cAMP), 1 pl of the respective substance dilution in DMSO and sufficient recombinant PDE (1000, g supernatant, see above) to ensure that 10-20% of the cAMP is converted under the said experimental conditions. […] After a preincubation of 5 min at 37° C., the reaction is started by adding the substrate (cAMP) and the assays are incubated for a further 15 min; after that, they are stopped by adding SPA beads (50 pl). In accordance with the manufacturer's instructions, the SPA beads had previously been resuspended in water, but were then diluted 1:3 (v/v) in water; the diluted solution also contains 3 mM IBMX to ensure a complete PDE activity stop. After the beads have been sedimented (>30 min), the MTP's are analyzed in commercially available luminescence detection devices. The corresponding IC50 values of the compounds for the inhibition of PDE4B1 activity are determined from the concentration-effect curves by means of non-linear regression.

T2 sequence (Q07343 whole entry): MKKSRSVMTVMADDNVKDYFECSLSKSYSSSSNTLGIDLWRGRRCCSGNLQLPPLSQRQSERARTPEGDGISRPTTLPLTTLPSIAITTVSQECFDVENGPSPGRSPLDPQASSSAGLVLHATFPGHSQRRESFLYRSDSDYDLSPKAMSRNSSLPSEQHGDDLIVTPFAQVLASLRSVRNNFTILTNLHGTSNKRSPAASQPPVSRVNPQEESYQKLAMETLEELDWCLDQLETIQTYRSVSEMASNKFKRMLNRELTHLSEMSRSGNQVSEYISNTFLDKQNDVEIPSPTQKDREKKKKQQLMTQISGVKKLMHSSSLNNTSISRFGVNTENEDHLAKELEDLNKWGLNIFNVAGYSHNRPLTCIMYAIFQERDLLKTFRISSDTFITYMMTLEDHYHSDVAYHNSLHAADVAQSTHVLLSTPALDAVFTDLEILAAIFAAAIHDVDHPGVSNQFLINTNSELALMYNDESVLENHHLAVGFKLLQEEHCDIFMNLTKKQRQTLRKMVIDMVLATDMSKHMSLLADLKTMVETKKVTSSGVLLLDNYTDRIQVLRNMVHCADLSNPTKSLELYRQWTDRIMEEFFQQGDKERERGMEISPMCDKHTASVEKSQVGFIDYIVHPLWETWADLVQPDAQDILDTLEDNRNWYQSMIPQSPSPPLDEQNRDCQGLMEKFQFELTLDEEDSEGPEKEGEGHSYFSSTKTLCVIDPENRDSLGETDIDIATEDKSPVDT

Take `CCOc1cc2c(cc1OC)C(c1ccc(C(=O)N3CCC(n4c(=O)c5sc(-c6cc(OC)ccc6OC)cc5n(Cc5nnn(CC)n5)c4=O)CC3)cc1)=N[C@@H]1CCSC[C@H]21` [Example 36, 6-(2,5-dimethoxyphenyl)-3-[1-({4-[(4aR,10bR)-9-ethoxy-8-methoxy-3,4,4a,10b-tetrahydro-1H-thiopyrano[4,3-c]isoquinolin-6-yl]phenyl}carbonyl)piperidin-4-yl]-1-[(2-ethyl-2H-tetrazol-5-yl)methyl]thieno[3,2-d]pyrimidine-2,4(1H,3H)-dione]: the values for the IC50 at human PDE5 and at PDE4B1 were below 10 nM and above 10 nM, respectively.
`CCOc1cc2c(cc1OC)C(c1cccc(C(=O)N3CCC(n4c(=O)c5sc(-c6ccc(F)cc6)cc5n(Cc5nnn(CC)n5)c4=O)CC3)c1)=N[C@@H]1CCSC[C@H]21` [Example 41, 3-[1-({3-[(4aR,10bR)-9-ethoxy-8-methoxy-3,4,4a,10b-tetrahydro-1H-thiopyrano[4,3-c]isoquinolin-6-yl]phenyl}carbonyl)piperidin-4-yl]-1-[(2-ethyl-2H-tetrazol-5-yl)methyl]-6-(4-fluorophenyl)thieno[3,2-d]pyrimidine-2,4(1H,3H)-dione]: the IC50 at human PDE5 is below 10 nM; on PDE4B1 it was above 10 nM.
`CCOc1cc2c(cc1OC)C(c1ccc(C(=O)N3CCC(n4c(=O)c5sc(-c6ccccc6)cc5n(Cc5ncc(CC)o5)c4=O)CC3)cc1)=N[C@@H]1CCSC[C@H]21` [Example 1, 3-[1-({4-[(4aR,10bR)-9-ethoxy-8-methoxy-3,4,4a,10b-tetrahydro-1H-thiopyrano[4,3-c]isoquinolin-6-yl]phenyl}carbonyl)piperidin-4-yl]-1-[(5-ethyl-1,3-oxazol-2-yl)methyl]-6-phenylthieno[3,2-d]pyrimidine-2,4(1H,3H)-dione]: the IC50 on human PDE5 was below 10 nM; on PDE4B1, 1 to 10 nM.
For `CCOc1cc2c(cc1OC)C(c1ccc(C(=O)N3CCC(n4c(=O)c5sc(-c6ccc(F)cc6)cc5n(Cc5nnn(CC)n5)c4=O)CC3)cc1)=N[C@@H]1CCSC[C@H]21` [Example 40, 3-[1-({4-[(4aR,10bR)-9-ethoxy-8-methoxy-3,4,4a,10b-tetrahydro-1H-thiopyrano[4,3-c]isoquinolin-6-yl]phenyl}carbonyl)piperidin-4-yl]-1-[(2-ethyl-2H-tetrazol-5-yl)methyl]-6-(4-fluorophenyl)thieno[3,2-d]pyrimidine-2,4(1H,3H)-dione], the IC50 at human PDE5 was below 10 nM; on PDE4B1, above 10 nM.
With `CCOc1cc2c(cc1OC)C(c1ccc(C(=O)N3CCC(n4c(=O)c5sc(-c6ccccc6)cc5n(Cc5nnc(C(C)(C)C)o5)c4=O)CC3)cc1)=N[C@@H]1CCSC[C@H]21` [Example 58, 1-[(5-tert-butyl-1,3,4-oxadiazol-2-yl)methyl]-3-[1-({4-[(4aR,10bR)-9-ethoxy-8-methoxy-3,4,4a,10b-tetrahydro-1H-thiopyrano[4,3-c]isoquinolin-6-yl]phenyl}carbonyl)piperidin-4-yl]-6-phenylthieno[3,2-d]pyrimidine-2,4(1H,3H)-dione], the IC50 is above 100 nM on human PDE5 and 1 to 10 nM on PDE4B1.
`CCOc1cc2c(cc1OC)C(c1cccc(C(=O)N3CCC(n4c(=O)c5sc(-c6ccccc6)cc5n(Cc5nnn(CC)n5)c4=O)CC3)c1)=N[C@@H]1CCSC[C@H]21` [Example 26, 3-[1-({3-[(4aR,10bR)-9-ethoxy-8-methoxy-3,4,4a,10b-tetrahydro-1H-thiopyrano[4,3-c]isoquinolin-6-yl]phenyl}carbonyl)piperidin-4-yl]-1-[(2-ethyl-2H-tetrazol-5-yl)methyl]-6-phenylthieno[3,2-d]pyrimidine-2,4(1H,3H)-dione]: the results for the IC50 at human PDE5 and on PDE4B1 were below 10 nM and above 10 nM, respectively.
For the compound `CCOc1cc2c(cc1OC)C(c1ccc(C(=O)N3CCC(n4c(=O)c5sc(-c6ccccc6)cc5n(Cc5sccc5C)c4=O)CC3)cc1)=N[C@@H]1CCSC[C@H]21` [Example 56, 3-[1-({4-[(4aR,10bR)-9-ethoxy-8-methoxy-3,4,4a,10b-tetrahydro-1H-thiopyrano[4,3-c]isoquinolin-6-yl]phenyl}carbonyl)piperidin-4-yl]-1-[(3-methylthiophen-2-yl)methyl]-6-phenylthieno[3,2-d]pyrimidine-2,4(1H,3H)-dione], the values for the IC50 on human PDE5 and on PDE4B1 were above 100 nM and 1 to 10 nM, respectively.
Regarding `CCOc1cc2c(cc1OC)C(c1ccc(C(=O)N3CCC(n4c(=O)c5sc(-c6ccc(F)cc6)cc5n(Cc5nc(CC)no5)c4=O)CC3)cc1)=N[C@@H]1CCSC[C@H]21` [Example 47, 3-[1-({4-[(4aR,10bR)-9-ethoxy-8-methoxy-3,4,4a,10b-tetrahydro-1H-thiopyrano[4,3-c]isoquinolin-6-yl]phenyl}carbonyl)piperidin-4-yl]-1-[(3-ethyl-1,2,4-oxadiazol-5-yl)methyl]-6-(4-fluorophenyl)thieno[3,2-d]pyrimidine-2,4(1H,3H)-dione], the figures for the IC50 at human PDE5 and at PDE4B1 were below 10 nM and 1 to 10 nM, respectively.
For `CCOc1cc2c(cc1OC)C(c1ccc(C(=O)N3CCC(n4c(=O)c5sc(-c6ccccc6)cc5n(Cc5nnn(CC)n5)c4=O)CC3)cc1)=NC1CC[S+]([O-])CC21` (single isomer, unassigned) [Example 24], in that order: below 10 nM and above 10 nM.
